# Results: patent US8618077B2, “Compositions and methods for treating fragile X premutation RVGG repeats-mediated toxicity” (Emory University, priority 2011, dated 2013)
# Tests used:
# [1] = test system: flies expressing fragile X premutation rCGG repeats (elav-GAL4/+; UAS-CGG90-EGFP/+); assay: Chemical screen / viability assay: rescue of lethality caused by neuronal expression of fragile X premutation rCGG90 repeats; type: in vivo, Drosophila; conditions: for recovery of dFmr1 CGG90 mutant flies: 40 microM of compound in the food, 0% on food alone
# From the text: In particular, embodiments of the present disclosure include methods of screening compounds using a drosophila (fruit fly) based compound screen to identify drug candidates for the treatment of the fragile X-associated tremor/ataxia syndrome or other neurodegenerative disorders. […] A fly line of UAS-CGG90-EGFP transgene balanced with Cyo balancer carrying hs-hid transgene was generated. Upon heat shock, the expression of hid was activated, which led to cell death and lethality in the CGG90 dFmr1 premutation fly embryos.
# The mutant embryos were placed into an appropriate container (e.g., a 96-well container) containing a food with or without a compound from a library of drugs candidates. 5 μM and 40 μM of individual compounds from a library of 2,000 FDA approved drugs and natural products (The Spectrum Collection™) were screened. Vials were then kept at 25° C. for 10 to 15 days to score for viability. The efficacy of the drug candidate was determined by scoring the number of pupae formation or the emergence of adult flies after a certain time frame. Embodiments of the present disclosure provide a screen for compounds that directly and indirectly regulate dFmr1 rCGG repeat mediated toxicity and rescue mutant flies from heat shock induced lethality. Additional details regarding the active compositions and disorders are described in the Examples below.
# A Drosophila disease model of FXTAS and provided experimental evidence that fragile X premutation rCGG repeats alone are sufficient to cause neurodegeneration in a repeat-dosage manner. See Jin et al., Neuron, 2003, 39:739-747. […] Lethality occurs primarily during embryonic development before larval formation. Taking advantage of this lethality, a high-throughput strategy was designed to screen chemical libraries for small molecules relevant to FXTAS. the UAS-CGG90-EGFP transgene was balanced with a chromosome carrying a curly wing (Cyo) marker recombined with a heat shock-inducible apoptotic hid (hs-hid) transgene (w1118, UAS-CGG90-EGFP/TM2 Cyo:hs-hid). Next, the viability of adult progeny was tested using the Drosophila GAL4/UAS system. crosses of UAS-CGG90-EGFP/TM2 Cyo:hs-hid were performed with homozygous pan-neuronal elav-Gal4 driver. There was an absence of heterozygous non-Cyo adult progeny (elav-GAL4/+; UAS-CGG90-EGFP/+), which confirmed that rCGG90 repeat expression in neurons leads to lethality. The only living progenies would carry elav-GAL4/+; +/TM2 Cyo:hs-hid. Furthermore, upon heat shock, the progenies carrying elav-GAL4/+; +/TM2 Cyo:hs-hid also died, because the expression of hid leads to cell death and lethality at embryonic stages that are otherwise viable.
# Since the rescue of the lethality was an easily scored phenotype, one is able to use this assay to conduct a chemical screen to identify the small molecules that can improve/restore the viability of the flies expressing fragile X premutation rCGG repeats. As depicted in schematic representation (FIG. 1A), crosses between elav-GAL4 and UAS-CGG90-EGFP/TM2 Cyo:hs-hid were raised as well as control flies into food supplemented with 40 μm of individual unique compounds from a library of 2000 US Food and Drug Administration (FDA)-approved drugs and natural products (The Spectrum Collection, MicroSource Discovery Systems, Inc.). […]
# [2] = test system: dFmr1 CGG90 mutant flies; assay: Locomotion assay (Drosophila Activity Monitor) in flies expressing rCGG90 repeats (UAS-CGG90-EGFP/nervana-GAL4); type: in vivo; conditions: for percentage of normal locomotion activity in dFmr1 CGG90 mutant flies: compound-treated flies, 50% without treatment; for effect on locomotion deficits caused by fragile X premutation rCGG repeats (in words): flies fed food containing the compound, mean locomotor activity over 7 days
# Experimental: FIG. 2A illustrates the identification of small molecules that can ameliorate the locomotion deficits caused by fragile X premutation rCGG repeats. Nervana-GAL4 driver and UAS-CGG90-EGFP/Cyo were crossed to produce progeny embryos on food supplemented with or without selected compounds as indicated. Adult progeny of genotype UAS-CGG90-EGFP/nervana were selected and 32 female virgins 48 h old were subsequently monitored for locomotor activity continuously for several weeks. The locomotion of 32 flies that were fed with fly food containing the compound each time were simultaneously monitored.
# To further validate these compounds, a secondary behavioral assay was developed. In this assay, UAS-CGG90-EGFP transgenic flies were crossed with nervana-GAL4, which could drive the expression of fragile X rCGG repeats in CNS, albeit weakly, allowing us to analyze adult flies for locomotion deficits. The expression of rCGG repeats leads to locomotion defects (FIG. 2A). […] The progeny flies (UAS-CGG90-EGFP/nervana-GAL4) were collected to monitor locomotion. To continuously monitor the locomotion for a given fly, a Drosophila Activity Monitor (DAM) system was established for this purpose. See Pfeiffenberger et al., Locomotor activity level monitoring using the Drosophila Activity Monitoring (DAM) System. Cold Spring Harb. Protoc. 2010.
# For each individual compound, the locomotion of 32 flies were simultaneously monitored that were fed with fly food containing the compound each time. The data were collected and analyzed for locomotor activity (FIG. 2B). Each drug treatment was repeated at least three times.
# [3] = test system: release of arachidonic acid; conditions: cited from earlier work
SMILES,recovery of dFmr1 CGG90 mutant flies [1],percentage of normal locomotion activity in dFmr1 CGG90 mutant flies [2],effect on locomotion deficits caused by fragile X premutation rCGG repeats (in words) [2],"suppression of lethality caused by fragile X premutation rCGG repeats (in words) ([1]; 40 μm compound in food, heat shock at day 2, scored after 10-15 days)",effect on locomotion deficits caused by fragile X premutation rCGG repeats (in words) ([2]; listed as Fluocinolone acetonide),effect on locomotion deficits caused by fragile X premutation rCGG repeats (in words) ([2]; listed as fluocinolone acetonide),release of arachidonic acid [3],effect on locomotion deficits caused by fragile X premutation rCGG repeats (in words) ([2]; listed as xylazine)
C[C@@H]1C[C@H]2[C@@H]3CCC4=CC(=O)C=C[C@]4(C)[C@@]3(F)[C@@H](O)C[C@]2(C)[C@@]1(O)C(=O)CO [dexamethasone],5%,90%,,,,,,
COc1ccc(C(=O)/C=C/c2ccccc2)cc1 [4′-methoxy chalcone],3%,75%,significant suppression of the locomotion activity deficit,,,,,
CC1(C)O[C@@H]2C[C@H]3[C@@H]4C[C@H](F)C5=CC(=O)C=C[C@]5(C)[C@@]4(F)[C@@H](O)C[C@]3(C)[C@]2(C(=O)CO)O1 [fluocilone acetonide],7.5%,99%,significant suppression of the locomotion activity deficit,suppress both lethality and locomotion deficits,significantly ameliorate the locomotion defects,suppress both lethality and locomotion deficits,,
CCN(CC)CCCC(C)Nc1c2ccc(Cl)cc2nc2ccc(OC)cc12 (stereo not shown) [quinacrine],,,,,,,blocked,
Cc1cccc(C)c1N=C1NCCCS1 [xylaxine],5%,80%,significant suppression of the locomotion activity deficit,,,,,significantly ameliorate the locomotion defects
